Source: US9271978B2 (Zenith Epigenetics Corp., priority 2012, dated 2016)

How the values were obtained:
Set-up in all cases: key: Active: Compounds with an IC50 value less than 30 μM were deemed to be active.; Not Active: Compounds with an IC50 value less than 30 μM were deemed to be active
[1] = target: T1, second bromodomain of Brd2 (BRD2(2)) (Homo sapiens, UniProt P25440); assay: Inhibition of tetra-acetylated histone H4 binding to Brd2 bromodomain 2 (TR-FRET); details: tetra-acetylated histone H4 peptide, active = IC50 <30 μM
T1 construct: made in house; host or cells: E. coli BL21 (DE3)
T1 sequence (P25440 344-453 limits assumed): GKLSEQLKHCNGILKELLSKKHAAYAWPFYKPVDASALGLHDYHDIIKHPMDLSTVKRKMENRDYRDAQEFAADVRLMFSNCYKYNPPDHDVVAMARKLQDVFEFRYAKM
Method in brief: (§1)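 N-terminally His-tagged bromodomains (200 nM), expressed in E. coli, were incubated with biotinylated tetra-acetylated histone H4 peptide (25-50 nM), Eu-cryptate streptavidin and XL665 anti-His antibody in HEPES pH 7.4 buffer with KF, 0.2% DMSO, 2 h at room temperature. Inhibition read as decreased 665/620 nm TR-FRET; IC50 from dose-response curves.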

[2] = test system: hIL-6 mRNA; assay: Inhibition of hIL-6 mRNA transcription in U937 cells; format: cell-based, human; details: LPS stimulation, active = IC50 <30 μM
Method in brief: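 U937 cells differentiated 3 days with 60 ng/mL PMA, pretreated 1 h with compound, then stimulated with 1 ug/mL E. coli LPS for 3 h at 37° C. hIL-6 mRNA quantified by one-step qRT-PCR, Ct normalized to internal control, expressed as fold induction relative to control.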

[3] = target: T2, Brd4 bromodomain 1 (BRD4(1)) (Homo sapiens, UniProt O60885); assay: Inhibition of tetra-acetylated histone H4 binding to Brd4 bromodomain 1 (TR-FRET); details: tetra-acetylated histone H4 peptide, active = IC50 <30 μM
T2 construct: Illustrative results with the first bromodomain of Brd4; made in house; host or cells: E. coli BL21 (DE3)
Method in brief: as §1

[4] = test system: c-myc; assay: Inhibition of c-myc expression in MV4-11 cells (mRNA, real-time PCR); format: cell-based; details: Human AML MV4-11 cells, 3 h incubation
Method in brief: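 MV4-11 cells (2.5×10^4) treated with compound or 0.1% DMSO for 3 h at 37 °C. c-myc mRNA measured by RT real-time PCR duplexed with cyclophilin. IC50 from dose–response curve.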

[5] = test system: human AML MV-4-11 (CRL-9591) cells; assay: Inhibition of cell proliferation in MV4-11 cells; format: cell-based; details: human AML MV-4-11 cells, 72 h; active = IC50 <30 μM
Method in brief: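 Exponentially growing MV-4-11 cells (5×10^4/well) were treated immediately with two-fold dilutions of compound from 30 μM to 0.2 μM, in triplicate, for 72 h at 37° C, 5% CO2. Viability was measured by MTS absorbance at 490 nm after 3–4 h. Proliferation relative to DMSO after blank correction gave IC50.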

SMILES	FRET activity (IC50 <30 μM) BRD2(2) [1]	IL-6 activity (IC50 <30 μM) [2]	FRET activity (IC50 <30 μM) BRD4(1) [3]	c-myc activity (IC50 <30 μM) [4]	Cell Proliferation activity (IC50 <30 μM) [5]
Cc1noc(C)c1-c1ccc(=O)n(Cc2ccccc2C(F)(F)F)n1 [Example 94, 6-(3,5-Dimethylisoxazol-4-yl)-2-(2-(trifluoromethyl)benzyl)pyridazin-3(2H)-one]	Active	Not Active	Active	Not Active	Active
Cc1noc(C)c1-c1ccc(=O)n(C(C)c2ccccc2F)c1 (centres unmarked) [Example 124, 5-(3,5-Dimethylisoxazol-4-yl)-1-(1-(2-fluorophenyl)ethyl)pyridin-2(1H)-one]	Active	Active	Active	Active	Active
Cc1noc(C)c1-c1ccc(=O)n(Cc2cccc(Cl)c2)c1 [Example 126, 1-(3-Chlorobenzyl)-5-(3,5-dimethylisoxazol-4-yl)pyridin-2(1H)-one]	Active	Active	Active	Active	Active
Cc1ccccc1Cn1nc(-c2c(C)noc2C)ccc1=O [Example 28]	Active	Active	Active	Active	Active
Cc1noc(C)c1-c1ccc(=O)n(Cc2ccccc2F)n1 [Example 93, 6-(3,5-Dimethylisoxazol-4-yl)-2-(2-fluorobenzyl)pyridazin-3(2H)-one]	Active	Not Active	Active	Not Active	Active
Cc1noc(C)c1-c1cc(C)c(=O)n(Cc2ccccc2F)n1 [Example 84, 6-(3,5-Dimethylisoxazol-4-yl)-2-(2-fluorobenzyl)-4-methylpyridazin-3(2H)-one]	Active	Active	Active	Not Active	Not Active
Cc1noc(C)c1-c1ccc(=O)n(C(C)c2cccc(Cl)c2)c1 (centres unmarked) [Example 113, 1-(1-(3-Chlorophenyl)ethyl)-5-(3,5-dimethylisoxazol-4-yl)pyridin-2(1H)-one]	Active	Active	Active	Active	Active
Cc1noc(C)c1-c1cc(Cl)c(=O)n(Cc2ccccc2)c1 [Example 64, 1-Benzyl-3-chloro-5-(3,5-dimethylisoxazol-4-yl)pyridin-2(1H)-one]	Active	Active	Active	Active	Active
Cc1noc(C)c1-c1ccc(=O)n([C@@H](C)c2ccccc2)c1 [Example 133, (S)-5-(3,5-Dimethylisoxazol-4-yl)-1-(1-phenylethyl)pyridin-2(1H)-one]	Active	Not Active	Active	Active	Not Active
Cc1noc(C)c1-c1ccc(=O)n(Cc2cccc(F)c2)c1 [Example 42, 5-(3,5-Dimethylisoxazol-4-yl)-1-(3-fluorobenzyl)pyridin-2(1H)-one]	Active	Active	Active	Active	Active
